This is an account of results in US20150094294A1, “COMPOUNDS AND METHODS FOR TREATING MALARIA” (Cellceutix Corporation, priority 2012, published 2015).

pEC50, pIC50: −log10 of the molar value. ≈ marks a conversion by molar mass, not a printed value. Bounds are passed on as bounds.

Holding throughout (assay type): cell-based
Data set [1] deals with 3T3 cells. Nature of the data set: Cytotoxicity against 3T3 cells. To be noted: for Cytotoxicity 3T3 EC50: 3T3 cells.
Data set [2] relates to P. falciparum 3D7 (chloroquine-sensitive). Nature of the data set: Anti-malarial activity, P. falciparum 3D7 culture, 72 hour, DNA content by flow cytometry. The conditions noted are these: synchronized ring-stage parasites. In outline: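 Magnet-synchronized ring-stage parasites in RPMI 1640/Albumax II were plated at 0.5% parasitemia, 4% final hematocrit, with compound added as 2× dilutions (2.5 μM to 20 nM) for 72 h. Fixed, Triton-permeabilized cells were stained with SYTOX Green (5 μM final), and DNA content was measured by flow cytometry to derive IC50.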
On the technique in general: In flow cytometry, cells or beads pass a laser one at a time.

The subject of data set [3] is P. falciparum DD2 (chloroquine-resistant). Nature of the data set: Anti-malarial activity, P. falciparum DD2 culture, 72 hour, DNA content by flow cytometry. To be noted: synchronized ring-stage parasites. The method, then:
Numerous compounds were screened in cultures of the malaria parasite P. falciparum 3D7 (chloroquine-sensitive) and DD2 (chloroquine-resistant). The compounds were also screened for toxixcity against 3T3 cells, HepG2 cells, and in a hemolysis assay. In brief, P. falciparum parasites were cultured in RPMI 1640 (Invitrogen) supplemented with Albumax II (Invitrogen). For synchronization, schizont stage parasites were magnet purified using a SuperMACS™ II Cell Separation Unit (Miltenyi Biotech). For IC50 determinations, synchronized ring-stage parasites were plated at 0.5% parasitemia and 8% hematocrit in 96-well plates at a total volume of 50 μL. Serial dilutions of 2× concentration of the respective compound, ranging from 2.5 μM to 20 nM, were added to the wells to bring the total volume up to 100 μL and 4% hematocrit. Compounds were assayed for a 72 hour period, after which the cultures were fixed with a solution of 4% paraformaldehyde and 0.08% glutaraldhyde in PBS. The cells were then permeabilized with 0.25% Triton X-100, and SYTOX Green Nucleic Acid Stain (Invitrogen) in PBS was added to a final concentration of 5 μM. DNA content, as an indicator of parasitemia, was analyzed on an Accuri C6 Flow Cytometer with C-Sampler. IC50 curves were generated using GraphPad Prism (GraphPad Software).

Data set [4] relates to HepG2 cells. The data set can be described thus: Cytotoxicity against HepG2 cells. The conditions noted are these: for Cytotoxicity HepG2 EC50: HepG2 cells.
A short description of data set [5]: in vitro.
A short description of data set [6]: Cytotoxicity against 3T3 cells. The conditions noted are these: mouse, 3T3 cells; read-out: Cytotoxicity 3T3 EC50.
The nature of data set [7]: Cytotoxicity against HepG2 cells. The conditions noted are these: human, HepG2 cells; read-out: Cytotoxicity HepG2 EC50.
[8] abbreviates: Plasmodium falciparum, 3D7, 72 h.

On to `CN(C)CCSc1cc(SCCN(C)C)c(C(F)(F)F)cc1NC(=O)c1cc(C(=O)Nc2cc(C(F)(F)F)c(SCCN(C)C)cc2SCCN(C)C)ncn1` [Compound 102], for which the results for the pEC50 in data set [1] and in data set [4] were above 5.70 and 4.30, respectively. For the same compound, the pIC50 (commonly −log10 of the IC50, conventionally taken in molar units) is 7.19 in data set [2] and 6.62 in data set [3].
The matching figures for `O=C(Nc1cc(C(F)(F)F)c(OC2CCNC2)cc1OC1CCNC1)c1cc(C(=O)Nc2cc(C(F)(F)F)c(OC3CCNC3)cc2OC2CCNC2)ncn1` (stereo not shown) [Compound 103]: 3.59, 3.42, 6.83 and 6.68.
Turning to `CC(C)(C)c1cc(N)c(SCCN)c(NC(=O)c2cccc(C(=O)Nc3cc(C(C)(C)C)cc(N)c3SCCN)n2)c1` [Compound 117], the results for the pEC50 in data set [1] and in data set [4] were 5.30 and 5.05, respectively. The negative logarithm of the IC50 (pIC50) in data set [2] was 6.14; in data set [3], 6.10.
In the case of `N=C(N)NCCSc1ccc(NC(=O)Nc2ccc(SCCNC(=N)N)c(C(F)(F)F)c2)cc1C(F)(F)F` [Compound 120], the pEC50 (commonly the negative decadic logarithm of the EC50, by convention in mol/L) in data set [1] is 4.19; in data set [4], 3.78. Also, the pIC50 was 7.08 in data set [2] and 7.34 in data set [3].
Regarding `CCN(CC)CCN(CCN)c1c(NC(=O)Nc2cc(C(F)(F)F)cc([N+](=O)[O-])c2N(CCN)CCN(CC)CC)cc(C(F)(F)F)cc1[N+](=O)[O-]` [Compound 123], the negative logarithm of the EC50 (pEC50) in data set [1] is 3.55; in data set [4] it was 3.36. For the same compound, the results for the pIC50 in data set [2] and in data set [3] were 6.80 and 6.48, respectively.
In the case of `CC(N)C(=O)Nc1ccc(-c2ccc(-c3ccc(NC(=O)C(C)N)cc3)cc2)cc1` (stereo not shown) [Compound 136], the negative logarithm of the EC50 (pEC50) in data set [1] and in data set [4] was below 3.00 in each case. Besides, the values for the pIC50 in data set [2] and in data set [3] were 6.75 and 6.38, respectively.
For `CC(C)(C)c1ccc(NC(=O)CCCCNC(=N)N)c(-c2ccc(-c3cc(C(C)(C)C)ccc3NC(=O)CCCCNC(=N)N)cc2)c1` [Compound 141], the values for the pEC50 in data set [1] and in data set [4] were 4.55 and 4.26, respectively. For the same compound, the pIC50 in data set [2] is 6.20; in data set [3], 6.15.
On to `N=C(N)NCCCOc1cc(OCCCNC(=N)N)c(-c2ccccc2)cc1-c1ccccc1` [Compound 143], for which the pEC50 is 4.13 in data set [1] and 3.92 in data set [4]. The compound further had a pIC50 in data set [3] of 6.99.
As for `N=C(N)NCCOc1ccccc1C(=O)Nc1ccc2c(c1)Cc1cc(NC(=O)c3ccccc3OCCNC(=N)N)ccc1-2` [Compound 172], the “Cytotoxicity 3T3 EC50” value in data set [1] is given as “Insol”. The EC50 – broadly, the concentration needed to bring the measured effect to its halfway point – in data set [5] is 22 µg/mL (≈ 36.3 µM). The same compound gave a negative logarithm of the IC50 (pIC50) in data set [3] (Plasmodium falciparum) of 6.53. The “Cytotoxicity HepG2 EC50” value in data set [4] is recorded as “Insol”.
Take `NCCSc1ccc(C(F)(F)F)cc1C(=O)Nc1ccc(-c2ccc(NC(=O)c3cc(C(F)(F)F)ccc3SCCN)cc2)cc1` [Compound 174]: the negative-log EC50 (pEC50) in data set [6] and in data set [7] was above 4.80 each time. The concentration giving a half-maximal response (EC50) in data set [5] is 1 µg/mL (≈ 1.47 µM). For the same compound, the negative-log IC50 (pIC50) was 6.23 in data set [2] (setting [8]) and 6.41 in data set [3] (Plasmodium falciparum).
On to `COc1ccc(CN)cc1NC(=O)c1cc(C(=O)Nc2cc(CN)ccc2OC)ncn1` [Compound 175], for which the pEC50 in data set [6] is 3.52; in data set [7] it was 3.44. In addition, in data set [5], the EC50 was above 1000 µg/mL. In addition, the pIC50 in data set [2] (setting [8]) is 6.37; in data set [3] (Plasmodium falciparum), 6.25.
Turning to `N=C(N)NCCc1cc(Br)cc(C#Cc2cc(C#Cc3cc(Br)cc(CCNC(=N)N)c3)cc(C(F)(F)F)c2)c1` [Compound 179], in data set [1], the “Cytotoxicity 3T3 EC50” value is given as “insol”. In data set [5], this compound came in with a half-maximal effective concentration (EC50) of 22 µg/mL (≈ 32.6 µM). Further, the pIC50 was 6.06 in data set [2] (setting [8]) and 6.10 in data set [3] (Plasmodium falciparum). In addition, the “Cytotoxicity HepG2 EC50” value in data set [4] is listed as “insol”.
With `NCCSc1c(N)cc(C(F)(F)F)cc1NC(=O)c1cn(C2CC2)c2cc(N3CCNCC3)c(F)cc2c1=O` [Compound 181], the figures for the pEC50 in data set [6] and in data set [7] were 4.09 and 3.81, respectively. The EC50 in data set [5] was above 1000 µg/mL. In addition, the pIC50 in data set [2] (setting [8]) is 6.16; in data set [3] (Plasmodium falciparum), 6.13.
